Measured values published in a melting point compilation (Tetko et al.; mined from patent text by program, amines drawn as free bases though some values may be those of a salt).

Compound | melting point [°C]
CCCc1c(SCCCOc2ccc3c(=O)cc(CCC(=O)O)oc3c2CCC)ccc(C(C)=O)c1N | 153 to 155
COC1=CC2=CCC3C4CC=CC4(C)CCC3C2(C)CC1 (stereo not given) | 83 to 92
COC(=O)C(C)(Oc1cccc(Oc2c(Cl)cc(C(F)(F)F)cc2Cl)c1)[N+](=O)[O-] (stereo not given) | 78
Cc1cc(C)c2c3c([nH]c2c1)C(=O)N=NC3=O | > 250
CCn1ncc2c3c(NCc4ccc(OC)c(Cl)c4)nnc(N4CCC(O)CC4)c3cnc21 | 109 to 110
COc1ccc2c(c1)c(CC(=O)O)c(C)n2C(=O)c1cccc(Cl)c1 | 90 to 92
CC(=O)Nc1cc(N(C)C)ccc1C1(c2ccc(N(C)C)cc2N(C)C)OC(=O)c2ccccc21 (stereo not given) | 97 to 136
CN1CCC(=C2c3ccccc3CCc3sc(Br)cc32)CC1 | 141 to 142
CC(C)(C)[Si](C)(C)N1C(=O)CC1C(=O)NC(Cc1c[nH]c2ccccc12)C(=O)OCc1ccccc1 (stereo not given) | 60 to 65
S=C(Nc1cccc(Cl)c1)N1CCOC1C1CCCCC1 (stereo not given) | 117 to 119
COc1cc(C(C)=O)ccc1OCCCCCl | 68.5 to 70.5
CN1C(=O)[C@@H](NC(=O)C2CCCCC2)N=C(c2ccccc2)c2ccccc21 | 212 to 214
N#Cc1c(N2CCNCC2)c2cc(F)ccc2n(Cc2ccccc2)c1=O | 162
CC(=O)Nc1ccc(SCCN2CC=C(c3ccc(F)cc3)CC2)cc1 | 150 to 152
CCC(O)(CC(N)=O)c1ccc(Cl)c(Cl)c1 (stereo not given) | 99 to 100
CCN(Cc1cccc(-c2ccc(CC3SC(=O)NC3=O)cc2)c1)C(=O)OC(C)(C)C (stereo not given) | 103
Cc1cc2cnn(CCO)c2cc1Nc1nnc2n1[C@H](c1ccc(F)cc1)COC2 | 215 to 217
Cc1cc(C2CC2)nc(NN)n1 | 98 to 99
COc1ccc(C(=O)Cl)cc1OC(=O)c1ccccc1 | 120 to 122
COc1ccc(-c2c(Cl)c(CNC(=O)c3cccnc3)nc3sc4c(c23)CCN(Cc2ccccc2)C4)cc1OC | 124 to 125

Compound | melting point [°C]
COc1ccc2c(c1)c(C)c(CC(C)C(=O)O)n2Cc1ccc(Cl)cc1 (stereo not given) | 128
COC(=O)NCOC(=O)N=CNc1c(Cc2cccnc2)c[nH]c1C(=O)OC | 160 to 162
Cc1nc2c3c(c(C(=O)N(C)C)cc2n1C)CC[C@@H](c1ccccc1)O3 | 227 to 228
O=c1oc(C(F)F)nc2c(C(F)(F)F)cccc12 | 82
COc1ccc(OC)c2c(=O)c3c(Cl)ccc([N+](=O)[O-])c3sc12 | 222 to 228
CCn1c(-c2ccc(N)cc2)n[nH]c1=S | 240 to 250
CC(C)(C)OC(=O)N[C@@H]1C(=O)N2C(C(=O)OC(c3ccccc3)c3ccccc3)=C(/C=C3\CCN(CC4CC4)C3=O)CS[C@H]12 | 175 to 180
O=C(O)CC1COc2cc(Cl)c(Cl)cc2O1 (stereo not given) | 145 to 147
CCc1ccc2c(c1)c(-c1ccccc1Cl)c(C(=O)O)c(=O)n2C | 200 to 201
O=C(O)C1C=Nc2c(cc(F)cc2[N+](=O)[O-])C1=O (stereo not given) | 254 to 256
CCCCc1nc2c(N)nc3c(c2n1CC(C)(C)OCCS(C)(=O)=O)CCCC3 | 146 to 148
O=c1nc(Nc2ccc(Br)cc2)sc2ncccc12 | 274 to 275
CC(=O)NC(C)c1c[nH]c(C)n1 (stereo not given) | 125 to 128
NS(=O)c1ncnc2c1ccn2C1CC(O)C(CO)O1 (stereo not given) | 170 to 172
Nc1nc(NCCOc2ccccc2)nc(-c2cc(Cl)ccc2Cl)n1 | 172 to 173
O=C(NC1CCCC1)c1ccc2nonc2c1 | 169 to 170
Cc1cccc(-c2nc(C(C)C)[nH]c2-c2ccc(F)c(-c3ccco3)c2)n1 | 78 to 90
CC(=NNc1ccc(C2=NNC(=O)CC2C)cc1)c1cc(O)ccc1O (stereo not given) | 279 to 284
Cc1cc(-n2cncn2)cc(I)c1N | 151 to 154
Cc1nc(Cc2ccccc2)cc(C(=O)O)c1OCCCN(C)C | 157
